Measured values reported in patent US20170095423A1, “Use of selectively moisture-adjusted tabletting material in the production of mechanically stable tablets which contain at least one hydrate-forming active substance and/or adjuvant relevant to the mechanical stability of the tablets, particularly arginine-containing tablets” (Boehringer Ingelheim International GmBH, priority 2012, published 2017).

Assay: sorption/desorption (DVS) behaviour: phase transition of the hydrate-forming agent L-arginine
Format: physicochemical
Source text: DVS measurement: measurement of the water absorption of a sample as a function of relative humidity and temperature using a highly sensitive sorption scale.
Phase transition in hydrate-forming active substances or adjuvants: the relative humidity at which the hydrate-forming agent water (particularly water of crystallization) is incorporated and changes from an anhydrate or a lower-valency form into a higher valency hydrate form, or vice versa. This relative humidity is characteristic of the respective hydrate-forming agent; if a hydrate-forming agent incorporates water in several steps, there are several phase transitions in this substance. For example: phase transition for pure L-arginine: 38% r.h./25° C. with incorporation of about 1.5 mol of water per 1 mol of L-arginine; in mixtures comprising L-arginine the phase transition is typically between 38 and 40% r.h./25° C., but in the test formulation described herein by way of example it starts, at latest, at 40% r.h./25° C.
(sorption and desorption cycle; change water content vs. rel. humidity). Tablets produced from tabletting material pre-conditioned at 25° C./45% r.h. were subsequently stored in very different humidity ranges (arrows; for discussion of the cases 1-4 see the description herein).

SMILES: N=C(N)NCCC[C@H](N)C(=O)O [L-arginine]
- phase transition (relative humidity at which water of crystallization is incorporated), sorption cycle (25° C.): 38 % r.h.
- phase transition in the desorption cycle (release of water of crystallisation) (25° C.): < 30 % r.h.
- water incorporated at phase transition (38% r.h./25° C.): about 1.5 mol of water per 1 mol of L-arginine
- relative humidity to ensure the phase transition, sorption cycle (at 40° C.): about 47 % r.h.
